This is an account of results in patent US12565490B2, “Inhibitors of Receptor Interacting Protein Kinase I for the treatment of disease” (Board of Regents, The University of Texas System, priority 2020, dated 2026).

Structures are written as SMILES.

The assay concerns human monocytic cell line U937. Description: Human U937 cellular necroptosis assay. It is filed as cell-based. To be noted: U-937; U937 cells stimulated with 25 ng/mL human TNFalpha and 25 μM z-VAD-FMK; 22 hr; viability by Cell Titer-Glo 2.0; read-out: hU937 IC50. The gist of the method: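 U937 cells (5000/well) driven to necroptosis by 25 ng/mL human TNFalpha plus 25 μM z-VAD-FMK alongside 1:3-diluted compounds, 22 hr at 37° C, 5% CO2. Viability by CellTiter-Glo luminescence; IC50 from four-parameter logistic fit.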
(ATP-based viability assays read luminescence as a measure of living cells.)
As usually defined, the IC50 is the concentration that inhibits the measured activity by half. On to `Cc1ccc(-c2nc(C(=O)N[C@H]3COc4cc(F)cnc4N(C)C3=O)ncc2Cl)cc1F` [Example 78, (S)-5-chloro-4-(3-fluoro-4-methylphenyl)-N-(8-fluoro-5-methyl-4-oxo-2,3,4,5-tetrahydropyrido[3,2-b]-[1,4]oxazepin-3-yl)pyrimidine-2-carboxamide], for which the IC50 came out at 8.3 nM.

In the case of `Cc1cc(-c2nc(C(=O)N[C@H]3COc4cc(F)cnc4N(C)C3=O)ncc2Cl)ccc1F` [Example 79, (S)-5-chloro-4-(4-fluoro-3-methylphenyl)-N-(8-fluoro-5-methyl-4-oxo-2,3,4,5-tetrahydropyrido[3,2-b]-[1,4]oxazepin-3-yl)pyrimidine-2-carboxamide], the IC50 was 18.9 nM.

`CN1C(=O)[C@@H](NC(=O)c2ncc(Cl)c(-c3ccccc3Cl)n2)COc2cc(F)cnc21` [Example 80, (S)-5-chloro-4-(2-chlorophenyl)-N-(8-fluoro-5-methyl-4-oxo-2,3,4,5-tetrahydropyrido[3,2-b]-[1,4]oxazepin-3-yl)pyrimidine-2-carboxamide]: the IC50 turned out to be 15.2 nM.

For `CN1C(=O)[C@@H](NC(=O)c2ncc(Cl)c(-c3cccc(Cl)c3)n2)COc2cc(F)cnc21` [Example 81, (S)-5-chloro-4-(3-chlorophenyl)-N-(8-fluoro-5-methyl-4-oxo-2,3,4,5-tetrahydropyrido[3,2-b]-[1,4]oxazepin-3-yl)pyrimidine-2-carboxamide], the IC50 came out at 29.6 nM.

Take `CN1C(=O)[C@@H](NC(=O)c2ncc(Cl)c(-c3ccc(Cl)cc3)n2)COc2cc(F)cnc21` [Example 82, (S)-5-chloro-4-(4-chlorophenyl)-N-(8-fluoro-5-methyl-4-oxo-2,3,4,5-tetrahydropyrido[3,2-b]-[1,4]oxazepin-3-yl)pyrimidine-2-carboxamide]: the IC50 was 13.6 nM.

For `Cc1cccc(-c2nc(C(=O)N[C@H]3COc4cc(F)cnc4N(C)C3=O)ncc2Cl)c1` [Example 83, (S)-5-chloro-N-(8-fluoro-5-methyl-4-oxo-2,3,4,5-tetrahydropyrido[3,2-b]-[1,4]oxazepin-3-yl)-4-(m-tolyl)-pyrimidine-2-carboxamide], the IC50 is 15.1 nM.

As to `CN1C(=O)[C@@H](NC(=O)c2ncc(Cl)c(-c3cccc(C#N)c3)n2)COc2cc(F)cnc21` [Example 84, (S)-5-chloro-4-(3-cyanophenyl)-N-(8-fluoro-5-methyl-4-oxo-2,3,4,5-tetrahydropyrido[3,2-b]-[1,4]oxazepin-3-yl)pyrimidine-2-carboxamide], the IC50 was found to be 33.5 nM.

Regarding `CN1C(=O)[C@@H](NC(=O)c2ncc(Cl)c(-c3ncccc3F)n2)COc2cc(F)cnc21` [Example 85, (S)-5-chloro-N-(8-fluoro-5-methyl-4-oxo-2,3,4,5-tetrahydropyrido[3,2-b]-[1,4]oxazepin-3-yl)-4-(3-fluoropyridin-2-yl)pyrimidine-2-carboxamide], the IC50 was 611 nM.

With `Cc1cnc(C(=O)N[C@H]2COc3cc(F)cnc3N(C)C2=O)nc1C12CCC(CC1)CC2` [Example 86, (S)-4-(bicyclo[2.2.2]octan-1-yl)-N-(8-fluoro-5-methyl-4-oxo-2,3,4,5-tetrahydro-pyrido[3,2-b][1,4]oxazepin-3-yl)-5-methylpyrimidine-2-carboxamide], the IC50 came out at 67.5 nM.

As to `Cc1cnc(C(=O)N[C@H]2COc3cc(F)cnc3N(C)C2=O)nc1C1CCOCC1` [Example 87, (S)-N-(8-fluoro-5-methyl-4-oxo-2,3,4,5-tetrahydro-pyrido[3,2-b][1,4]oxazepin-3-yl)-5-methyl-4-(tetrahydro-2H-pyran-4-yl)pyrimidine-2-carboxamide], the IC50 worked out at 157 nM.

As to `Cc1cnc(C(=O)N[C@H]2COc3cc(F)cnc3N(C)C2=O)nc1-c1ccccc1F` [Example 88, (S)-N-(8-fluoro-5-methyl-4-oxo-2,3,4,5-tetrahydro-pyrido[3,2-b][1,4]oxazepin-3-yl)-4-(2-fluorophenyl)-5-methylpyrimidine-2-carboxamide], the IC50 was 13.7 nM.

As to `Cc1cc(F)ccc1-c1ccnc(C(=O)N[C@H]2COc3cc(Cl)cnc3N(C)C2=O)n1` [Example 89, (S)-N-(8-chloro-5-methyl-4-oxo-2,3,4,5-tetrahydro-pyrido[3,2-b][1,4]oxazepin-3-yl)-4-(4-fluoro-2-methylphenyl)pyrimidine-2-carboxamide], the IC50 was determined as 136 nM.

For `Cc1cc(F)cc(F)c1-c1ccnc(C(=O)N[C@H]2COc3cc(Cl)cnc3N(C)C2=O)n1` [Example 90, (S)-N-(8-chloro-5-methyl-4-oxo-2,3,4,5-tetrahydro-pyrido[3,2-b][1,4]oxazepin-3-yl)-4-(2,4-difluoro-6-methylphenyl)pyrimidine-2-carboxamide], the IC50 was determined as 83.5 nM.

As for `CN1C(=O)[C@@H](NC(=O)c2ncc(F)c(-c3ccc(F)cc3)n2)COc2cc(Cl)cnc21` [Example 91, (S)-N-(8-chloro-5-methyl-4-oxo-2,3,4,5-tetrahydro-pyrido[3,2-b][1,4]oxazepin-3-yl)-5-fluoro-4-(4-fluorophenyl)-pyrimidine-2-carboxamide], the IC50 was found to be 33.2 nM.

As to `Cc1cc(F)ccc1-c1nc(C(=O)N[C@H]2COc3cc(Cl)cnc3N(C)C2=O)ncc1F` [Example 92, (S)-N-(8-chloro-5-methyl-4-oxo-2,3,4,5-tetrahydro-pyrido[3,2-b][1,4]oxazepin-3-yl)-5-fluoro-4-(4-fluoro-2-methylphenyl)pyrimidine-2-carboxamide], the IC50 stood at 15.2 nM.

For `CN1C(=O)[C@@H](NC(=O)c2ncc(Cl)c(-c3ccccc3)n2)COc2cc(Cl)cnc21` [Example 93, (S)-5-chloro-N-(8-chloro-5-methyl-4-oxo-2,3,4,5-tetrahydropyrido[3,2-b]-[1,4]oxazepin-3-yl)-4-phenylpyrimidine-2-carboxamide], the IC50 is 6.23 nM.

On to `CN1C(=O)[C@@H](NC(=O)c2ncc(Cl)c(-c3ccccc3F)n2)COc2cc(Cl)cnc21` [Example 94, (S)-5-chloro-N-(8-chloro-5-methyl-4-oxo-2,3,4,5-tetrahydropyrido[3,2-b]-[1,4]oxazepin-3-yl)-4-(2-fluorophenyl)pyrimidine-2-carboxamide], for which the IC50 amounted to 13.5 nM.

Consider `CN1C(=O)[C@@H](NC(=O)c2ncc(Cl)c(-c3cccc(F)c3F)n2)COc2cc(Cl)cnc21` [Example 95, (S)-5-chloro-N-(8-chloro-5-methyl-4-oxo-2,3,4,5-tetrahydropyrido[3,2-b]-[1,4]oxazepin-3-yl)-4-(2,3-difluorophenyl)pyrimidine-2-carboxamide], for which the IC50 worked out at 15.2 nM.

For the molecule `CN1C(=O)[C@@H](NC(=O)c2ncc(Cl)c(-c3ccc(F)cc3F)n2)COc2cc(Cl)cnc21` [Example 96, (S)-5-chloro-N-(8-chloro-5-methyl-4-oxo-2,3,4,5-tetrahydropyrido[3,2-b]-[1,4]oxazepin-3-yl)-4-(2,4-difluorophenyl)pyrimidine-2-carboxamide], the IC50 was determined as 8.33 nM.

As to `CN1C(=O)[C@@H](NC(=O)c2ncc(Cl)c(-c3ccc(F)c(F)c3)n2)COc2cc(Cl)cnc21` [Example 97, (S)-5-chloro-N-(8-chloro-5-methyl-4-oxo-2,3,4,5-tetrahydropyrido[3,2-b]-[1,4]oxazepin-3-yl)-4-(3,4-difluorophenyl)pyrimidine-2-carboxamide], the IC50 worked out at 11 nM.

For the molecule `CN1C(=O)[C@@H](NC(=O)c2ncc(Cl)c(-c3cc(F)ccc3F)n2)COc2cc(Cl)cnc21` [Example 98, (S)-5-chloro-N-(8-chloro-5-methyl-4-oxo-2,3,4,5-tetrahydropyrido[3,2-b]-[1,4]oxazepin-3-yl)-4-(2,5-difluorophenyl)pyrimidine-2-carboxamide], the IC50 was determined as 7.25 nM.

For `CN1C(=O)[C@@H](NC(=O)c2ncc(Cl)c(-c3cc(F)cc(F)c3)n2)COc2cc(Cl)cnc21` [Example 99, (S)-5-chloro-N-(8-chloro-5-methyl-4-oxo-2,3,4,5-tetrahydropyrido [3,2-b]-[1,4]oxazepin-3-yl)-4-(3,5-difluorophenyl)pyrimidine-2-carboxamide], the IC50 worked out at 13.9 nM.

For the molecule `Cc1cc(-c2nc(C(=O)N[C@H]3COc4cc(Cl)cnc4N(C)C3=O)ncc2Cl)ccc1F` [Example 100, (S)-5-chloro-N-(8-chloro-5-methyl-4-oxo-2,3,4,5-tetrahydropyrido[3,2-b]-[1,4]oxazepin-3-yl)-4-(4-fluoro-3-methylphenyl)pyrimidine-2-carboxamide], the IC50 stood at 12.2 nM.

Take `CN1C(=O)[C@@H](NC(=O)c2ncc(Cl)c(-c3ccccc3Cl)n2)COc2cc(Cl)cnc21` [Example 101, (S)-5-chloro-N-(8-chloro-5-methyl-4-oxo-2,3,4,5-tetrahydropyrido[3,2-b]-[1,4]oxazepin-3-yl)-4-(2-chlorophenyl)pyrimidine-2-carboxamide]: the IC50 was 14.7 nM.

Turning to `CN1C(=O)[C@@H](NC(=O)c2ncc(Cl)c(-c3cccc(Cl)c3)n2)COc2cc(Cl)cnc21` [Example 102, (S)-5-chloro-N-(8-chloro-5-methyl-4-oxo-2,3,4,5-tetrahydropyrido[3,2-b]-[1,4]oxazepin-3-yl)-4-(3-chlorophenyl)pyrimidine-2-carboxamide], the IC50 came to 12.7 nM.

For `CN1C(=O)[C@@H](NC(=O)c2ncc(Cl)c(-c3ccc(Cl)cc3)n2)COc2cc(Cl)cnc21` [Example 103, (S)-5-chloro-N-(8-chloro-5-methyl-4-oxo-2,3,4,5-tetrahydropyrido[3,2-b]-[1,4]oxazepin-3-yl)-4-(4-chlorophenyl)pyrimidine-2-carboxamide], the concentration for half-maximal inhibition (IC50) worked out at 6.69 nM.

Regarding `CN1C(=O)[C@@H](NC(=O)c2ncc(Cl)c(-c3cccc(C#N)c3)n2)COc2cc(Cl)cnc21` [Example 104, (S)-5-chloro-N-(8-chloro-5-methyl-4-oxo-2,3,4,5-tetrahydropyrido[3,2-b]-[1,4]oxazepin-3-yl)-4-(3-cyanophenyl)pyrimidine-2-carboxamide], the IC50 worked out at 32.1 nM.

As for `CN1C(=O)[C@@H](NC(=O)c2ncc(Cl)c(-c3ccc(C#N)cc3)n2)COc2cc(Cl)cnc21` [Example 105, (S)-5-chloro-N-(8-chloro-5-methyl-4-oxo-2,3,4,5-tetrahydropyrido[3,2-b]-[1,4]oxazepin-3-yl)-4-(4-cyanophenyl)pyrimidine-2-carboxamide], the IC50 was 19.6 nM.
